From article PMC9081825 (2022)

Assays:
Experiment in all cases: QD fluorescence recovery on release from amSWCNT
[1] = system: A08min-QDs (multi-QD mixture, nanocomplex 1) (DNA, aptamer) GGCAGTGTGGGCGAATCTATGCGTACCGTTCGATATCGTG; conditions: 137 mM NaCl, 2.7 mM KCl; phosphate buffer pH 7.4; tested at 1.5 μM; 530 nm
[2] = system: A08min-RQD (nanocomplex 4) (DNA, aptamer) GGCAGTGTGGGCGAATCTATGCGTACCGTTCGATATCGTG; conditions: 137 mM NaCl, 2.7 mM KCl; phosphate buffer pH 7.4; OTA 0-1.2 μM; 650 nm; 0.12 mg/mL amSWCNT
[3] = system: 1.12.2-RQD (nanocomplexes 4 and 5) (DNA, aptamer) GATCGGGTGTGGGTGGCGTAAAGGGAGCATCGGACA; conditions: 120 mM NaCl, 5 mM KCl, 10 mM CaCl2, 10 mM HEPES pH 7.0 (buffer listed for 1.12.2 in supplement)
[4] = system: A08min-GQD (nanocomplex 3) (DNA, aptamer) GGCAGTGTGGGCGAATCTATGCGTACCGTTCGATATCGTG; conditions: 137 mM NaCl, 2.7 mM KCl; phosphate buffer pH 7.4; OTA 0-1.2 μM; 525 nm; 0.12 mg/mL amSWCNT
[5] = system: 1.12.2-GQD (nanocomplex 3) (DNA, aptamer) GATCGGGTGTGGGTGGCGTAAAGGGAGCATCGGACA; conditions: 120 mM NaCl, 5 mM KCl, 10 mM CaCl2, 10 mM HEPES pH 7.0 (buffer listed for 1.12.2 in supplement)

Structure (SMILES)	binding [1]	further results
CCCC[C@@H](C)[C@@H](OC(=O)C[C@@H](CC(=O)O)C(=O)O)[C@H](C[C@@H](C)C[C@H](O)CCCC[C@@H](O)C[C@H](O)[C@H](C)N)OC(=O)C[C@@H](CC(=O)O)C(=O)O	no	–
C[C@@H]1Cc2ccc(C(=O)N[C@@H](Cc3ccccc3)C(=O)O)c(O)c2C(=O)O1	no	–
C[C@@H]1Cc2c(Cl)cc(C(=O)N[C@@H](Cc3ccccc3)C(=O)O)c(O)c2C(=O)O1	–	binding [2]: yes; binding [3]: yes; binding [4]: yes; binding [5]: yes
O=C1C=C2C(=CCOC2O)O1 (centres unmarked)	no	–
CC(=O)CC(c1ccccc1)c1c(O)c2ccccc2oc1=O (centres unmarked)	no	–
